“And” between values parts separate entries of the source, which are not always exact repeats. Equal values may be shown once. “Also recorded” adds a separate entry of the source. Read-outs that look alike come from different tables or passages of the source.
Columns and labels:
hOR51E1 [1] = target: T1, hOR51E1 (Homo sapiens, UniProt Q8TCB6); assay: Cre-luciferase reporter gene assay, concentration-response curve of nonanoic acid on hOR51E1 (Dual-Glo Luciferase, transfected HANA3A cells); assay type: cell-based; parameters: expressed in transfected cells; host or cells: HANA3A; details: agonist alone; human olfactory receptor hOR51E1 recombinantly expressed in HANA3A cells with RTP1S, G-protein αolf, M3 muscarinic acetylcholine receptor, pGL4-luciferase and pRL-TK-Renilla reporters; 4 h at 37° C.; Hill fit; n=3 in duplicate; FIG. 4B left
T1 sequence (Q8TCB6 1-318): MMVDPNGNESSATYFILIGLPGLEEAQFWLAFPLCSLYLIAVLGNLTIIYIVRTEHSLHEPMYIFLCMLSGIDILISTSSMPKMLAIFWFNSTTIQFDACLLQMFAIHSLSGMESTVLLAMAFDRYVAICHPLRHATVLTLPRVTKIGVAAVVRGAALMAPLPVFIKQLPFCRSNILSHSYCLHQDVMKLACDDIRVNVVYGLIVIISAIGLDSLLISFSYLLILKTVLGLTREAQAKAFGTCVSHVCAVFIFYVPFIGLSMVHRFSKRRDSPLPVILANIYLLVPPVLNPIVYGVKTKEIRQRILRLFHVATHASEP
Protocol: (§1) In order to identify suitable antagonist for TMA the protocol of Zhuang and Matsunami for measuring receptor activity with the Dual-Glo Luciferase Assay System (Promega) was adapted [see Nat. Protoc. 3(9), p. 1402-1413 (2008)]. HANA3A cells were maintained under standard conditions in DMEM supplemented with 10% FBS and 100 units/ml penicillin and streptomycin at 37° C. Cells (approximately 15,000 cells/well) were plated on poly-D-lysine-coated 96-well plates (NUNC) and transfected after 24 h with the FuGENE® HD (Promega) transfection reagent according to the manufacturer's protocol. […] Expression rates of Cre-luciferase were monitored by luminescent enzymatic reactivity. Thus, luminescence signals correlate with receptor activation. […]
For statistical analysis of Cre-luciferase assay data, two-tailed unpaired Student's t-test. […] Sensory data was analyzed using non-parametric statistical tests. The overall difference between the group thresholds was determined by a Kruskal-Wallis test, followed by a Dunn post-hoc test for the respective pairwise comparisons.
(§2) Another experiment was directed to figure out whether the Timberol® block is exclusively mediated by hTAAR5. […] Then the impact of Timberol® on MOR42-3- and hOR51E1-mediated responses to the respective agonists was tested with concentrations below and above the calculated EC50 values. […]

humans = details: in vivo; cited from earlier work
panelists = assay: Olfactory detection threshold of TMA, 3-alternative forced-choice, ISO 13301; assay type: in vivo, human; details: for olfactory detection threshold of TMA: buffered aqueous solution pH 9
Protocol: In addition, olfactory detection thresholds were assessed in aqueous solutions using a best estimate threshold approach as described in ISO 13301. In brief, samples containing different concentrations of analyte were presented in ascending order in a 3-alternative forced-choice design. Each concentration set consisted of three samples with one deviating sample containing a defined amount of trimethylamine. Samples were presented in amber vials (30 ml) coded with three digits and filled with 10 ml of solution, and panelists were required to designate the sample that differed from the others.
Thresholds of TMA were measured in buffered aqueous solution i) without additive ii) with 1% (m/m) Timberol® and iii) with 0.1% Mugetanol (isointense to 1% Timberol®). These experiments were performed separately on different days with the same panelists. In the case of testing in the presence of fragrance components (Timberol® or Mugetanol), all three samples of a given concentration set contained the same amount of fragrance components and differed only in the presence/absence of TMA. In each session, a total of 10 concentration sets ranging from […] to 1.00×10^−5% (m/m) TMA were evaluated. The concentration doubled in each step.
The aqueous solutions were buffered with TRIS (50 mM), and the pH was adjusted to 9 to have approximately 13% of the TMA in a deprotonated and thus volatile form. Furthermore, an odorless emulsifier was added to a final concentration of 3% (m/m) to dissolve Timberol®.
In a second step, the influence of Timberol® on the perception of TMA was investigated using a psychophysical approach. Therefore the detection thresholds of TMA alone and in the presence of suprathreshold concentrations of Timberol® were tested. Threshold measurements were performed in a 3-alternative forced-choice design according to ISO 13301. A total of 10 concentrations (binary dilution steps) ranging from […] to 1.00×10^−5% (m/m) TMA were examined.

hTAAR5 [2] = target: T2, hTAAR5 (Homo sapiens, UniProt O14804); details: agonist; cited from earlier work
T2 construct: expressed in transfected cells; host or cells: HANA3A cells
T2 sequence (O14804 1-337): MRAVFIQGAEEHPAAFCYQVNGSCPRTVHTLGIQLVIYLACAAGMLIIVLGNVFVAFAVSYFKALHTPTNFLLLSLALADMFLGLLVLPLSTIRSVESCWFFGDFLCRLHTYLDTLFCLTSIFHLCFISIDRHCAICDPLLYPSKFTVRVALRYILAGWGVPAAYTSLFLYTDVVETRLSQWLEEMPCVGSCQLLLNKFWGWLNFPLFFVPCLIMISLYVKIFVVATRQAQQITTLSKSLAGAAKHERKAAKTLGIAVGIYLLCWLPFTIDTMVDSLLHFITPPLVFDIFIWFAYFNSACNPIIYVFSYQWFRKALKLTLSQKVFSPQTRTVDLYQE

hOR51E1 [3] = target: T1, hOR51E1; assay: Cre-luciferase assay, hOR51E1-mediated responses to nonanoic acid; assay type: cell-based; parameters: expressed in transfected cells; host or cells: HANA3A cells; details: Timberol 30 μM; agonist below and above EC50
Protocol: as §1, with “protocol. In a 96-well plate, we placed 18 μl transfection reagent, 1-5 μg receptor plasmid, 2 μg pGL4-luciferase reporter, 1 μg pRL-TK-Renilla reporter, 0.5 μg G-protein αolf, 1 μg receptor transport protein (RTP1S) and 1 μg M3 muscarinic acetylcholine receptor (for hOR51E1) to ensure cell surface expression.” for “protocol.”
as §2

MOR42-3 = assay: Cre-luciferase assay, MOR42-3-mediated responses to azelaic acid; assay type: cell-based, murine; details: Timberol 30 μM; agonist below and above EC50
Protocol: as §1, with “protocol. In a 96-well plate, we placed 18 μl transfection reagent, 1-5 μg receptor plasmid, 2 μg pGL4-luciferase reporter, 1 μg pRL-TK-Renilla reporter, 0.5 μg G-protein αolf, 1 μg receptor transport protein (RTP1S) and 1 μg M3 muscarinic acetylcholine receptor (for hOR51E1) to ensure cell surface expression.” for “protocol.”
as §2

murine TAAR5 = target: T3, murine TAAR5 (Mus musculus, UniProt Q5QD14); assay: Cre-luciferase assay, murine TAAR5 responses to TMA; assay type: cell-based; details: Timberol 100 μM
T3 construct: expressed in transfected cells; host or cells: HANA3A cells
T3 sequence (Q5QD14 1-337): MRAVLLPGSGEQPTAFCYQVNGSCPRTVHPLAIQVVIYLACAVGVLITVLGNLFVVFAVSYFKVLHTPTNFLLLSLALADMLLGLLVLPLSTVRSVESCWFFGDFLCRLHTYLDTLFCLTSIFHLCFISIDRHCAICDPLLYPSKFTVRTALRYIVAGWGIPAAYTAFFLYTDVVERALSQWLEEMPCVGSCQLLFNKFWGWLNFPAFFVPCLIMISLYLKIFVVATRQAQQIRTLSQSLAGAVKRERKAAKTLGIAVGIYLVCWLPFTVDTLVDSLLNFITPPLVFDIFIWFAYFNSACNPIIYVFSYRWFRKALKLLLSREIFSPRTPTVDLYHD

intracellular cAMP = assay: Control experiments: intracellular cAMP level in hTAAR5-transfected HANA3A cells (basal and forskolin-stimulated); assay type: cell-based, human
Protocol: In order to identify suitable antagonist for TMA the protocol of Zhuang and Matsunami for measuring receptor activity with the Dual-Glo Luciferase Assay System (Promega) was adapted [see Nat. Protoc. 3(9), p. 1402-1413 (2008)]. HANA3A cells were maintained under standard conditions in DMEM supplemented with 10% FBS and 100 units/ml penicillin and streptomycin at 37° C. Cells (approximately 15,000 cells/well) were plated on poly-D-lysine-coated 96-well plates (NUNC) and transfected after 24 h with the FuGENE® HD (Promega) transfection reagent according to the manufacturer's protocol. In a 96-well plate, we placed 18 μl transfection reagent, 1-5 μg receptor plasmid, 2 μg pGL4-luciferase reporter, 1 μg pRL-TK-Renilla reporter, 0.5 μg G-protein αolf, 1 μg receptor transport protein (RTP1S) and 1 μg M3 muscarinic acetylcholine receptor (for hOR51E1) to ensure cell surface expression. Cells were stimulated 24 h after transfection for 4 h at 37° C. with test substances diluted in CD 293 medium (1×) (Life Technologies) with 2 mM L-glutamine (Life Technologies) added. After stimulation with test substances, recombinant hTAAR5 activation elevated cAMP and the subsequent expression of the cAMP-dependent reporter gene construct Cre-luciferase. Expression rates of Cre-luciferase were monitored by luminescent enzymatic reactivity. Thus, luminescence signals correlate with receptor activation. […]

hTAAR5 [4] = target: T2, hTAAR5; assay: Cre-luciferase reporter gene assay, hTAAR5-mediated responses to TMA in transfected HANA3A cells; assay type: cell-based; details: for IC50: read-out: half maximal inhibitory concentration (IC50)
Protocol: In order to identify suitable antagonist for TMA the protocol of Zhuang and Matsunami for measuring receptor activity with the Dual-Glo Luciferase Assay System (Promega) was adapted [see Nat. Protoc. 3(9), p. 1402-1413 (2008)]. HANA3A cells were maintained under standard conditions in DMEM supplemented with 10% FBS and 100 units/ml penicillin and streptomycin at 37° C. Cells (approximately 15,000 cells/well) were plated on poly-D-lysine-coated 96-well plates (NUNC) and transfected after 24 h with the FuGENE® HD (Promega) transfection reagent according to the manufacturer's protocol. In a 96-well plate, we placed 18 μl transfection reagent, 1-5 μg receptor plasmid, 2 μg pGL4-luciferase reporter, 1 μg pRL-TK-Renilla reporter, 0.5 μg G-protein αolf, 1 μg receptor transport protein (RTP1S) and 1 μg M3 muscarinic acetylcholine receptor (for hOR51E1) to ensure cell surface expression. Cells were stimulated 24 h after transfection for 4 h at 37° C. with test substances diluted in CD 293 medium (1×) (Life Technologies) with 2 mM L-glutamine (Life Technologies) added. After stimulation with test substances, recombinant hTAAR5 activation elevated cAMP and the subsequent expression of the cAMP-dependent reporter gene construct Cre-luciferase. Expression rates of Cre-luciferase were monitored by luminescent enzymatic reactivity. Thus, luminescence signals correlate with receptor activation. The Renilla luciferase reporter driven by a constitutively active TK-promoter (pRL-TK-Renilla) served as an internal control to determine cell viability and transfection efficiency. Firefly luciferase activity to the Renilla luciferase signal was normalized for all wells. The ratios of antagonistic stimulation were normalized to the ratios of agonist stimulation. Furthermore, mock-transfected cells were stimulated to exclude unspecific responses to the tested substances.
To identify blocker substances for hTAAR5-mediated responses to TMA, the Cre-luciferase reporter gene assay was used. Human TAAR5-transfected HANA3A cells were stimulated with a mix of the agonist TMA (300 μM) and 100 μM of a potential blocker substance (FIG. 1).
For more detailed information concerning the type of antagonism (competitive vs. non-competitive) in the following experiments, the pharmacological profile of Timberol® was characterized. To test the concentration dependency of the Timberol® block, a concentration-inhibition curve (FIG. 2a) was measured. The blocking effect was increased with increasing concentrations of Timberol® and decreased with increasing concentrations of the agonist TMA. The latter was reflected by a significant concentration-inhibition curve shift.

SMILES: CCCCCCCCC(=O)O [Nonanoic acid, nonanoic acid]
- EC50 (hOR51E1 [1]): 103 ± 23.1 µM

SMILES: CN(C)C [TMA, trimethylamine, reference compound]
- detection threshold in humans (humans): 0.00047 ppm
- olfactory detection threshold of TMA (panelists; TMA alone): 2.0×10^−7 % (m/m)
- olfactory detection threshold of TMA (panelists; in the presence of Timberol (1% m/m)): 1.0×10^−6 % (m/m)
- activation of hTAAR5 (hTAAR5 [2]): specifically activated

SMILES: CCCC(O)CCC1C(C)CCCC1(C)C (centres unmarked) [Timberol®, Norlimbanol]
- blocking effect on hOR51E1-mediated responses to nonanoic acid (hOR51E1 [3]): no any significant impact; also recorded: No significant blocking effects
- blocking effect on MOR42-3-mediated responses to azelaic acid (MOR42-3): no any significant impact; also recorded: No significant blocking effects
- influence of additive on TMA detection threshold / perception (panelists; 1% Timberol or 0.1% Mugetanol (isointense)): abolished the ability to perceive TMA around perithreshold concentrations; also recorded: shifted to a significantly higher concentration
- subjects less sensitive to TMA in the presence of Timberol (panelists; of the 27 tested subjects): 23
- blocking effect on murine TAAR5 (murine TAAR5; 1 μM TMA): 34%±2%
- inhibition of mTAAR5-mediated responses to TMA (murine TAAR5): able to block; also recorded: inhibits
- basal cAMP production (intracellular cAMP; Timberol (100 μM) alone vs unstimulated controls): No significant reduction; also recorded: did not affect
- cAMP levels after forskolin (intracellular cAMP; Timberol (100 μM) mixed with 10 μM forskolin vs forskolin alone): no significant difference; also recorded: did not affect
- block of average hTAAR5 responses (hTAAR5 [4]; 30 μM Timberol): at least 50%
- block of hTAAR5 response (hTAAR5 [4]; 30 μM Timberol, 30 μM TMA): ~78%
- block of hTAAR5 response (hTAAR5 [4]; 30 μM Timberol, 100 μM TMA): ~56%
- blocking effect (hTAAR5 [4]; 100 μM Timberol, 30 μM TMA): ~96% and 96%±1.7%
- blocking effect (hTAAR5 [4]; 100 μM Timberol, 100 μM TMA): 86%±3.6%
- inhibition of hTAAR5 responses to TMA (hTAAR5 [4]; 100 μM Timberol, 300 μM TMA): 72%±6%
- IC50 (hTAAR5 [4]; TMA 30 μM): 16.6 µM
- IC50 (hTAAR5 [4]; TMA 100 μM): 27.8 µM
- reduction / inhibition of hTAAR5-mediated TMA responses (hTAAR5 [4]; TMA 300 μM, putative antagonist 100 μM): nearly completely block

SMILES: CN [methylamine]
- detection threshold in humans (humans): 180 ppm
